According to patent publication US10174013B2, “Benzimidazole derivatives as kinase inhibitors” (SELVITA S.A., priority 2012, dated 2019):
pIC50: −log10 of the molar value. Where two headings read alike, the source gives them in different places.

Columns and labels:
[1] = biological target: Pim-1 (Homo sapiens (Human), UniProt P11309); experiment: ADP-Glo Kinase Assay, Pim-1; assay type: biochemical; settings: 1 μM compound; for inhibition at 1 µM: read-out: Pim-1 % INH (1 μM)
How it was run: (§1)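 Compounds were diluted in assay buffer to 1000 nM and incubated with kinase, substrate and ATP at apparent Km. Remaining ATP was depleted, ADP converted to ATP and detected by luciferase; percent inhibition came from normalized luminescence.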

[2] = biological target: FLT3wt (Homo sapiens (Human), UniProt P36888); experiment: ADP-Glo Kinase Assay, Flt3 wt; assay type: biochemical; settings: 1 μM compound; for inhibition at 1 µM: read-out: Flt3wt % INH (1 μM)
Chain of FLT3wt (P36888 27-993): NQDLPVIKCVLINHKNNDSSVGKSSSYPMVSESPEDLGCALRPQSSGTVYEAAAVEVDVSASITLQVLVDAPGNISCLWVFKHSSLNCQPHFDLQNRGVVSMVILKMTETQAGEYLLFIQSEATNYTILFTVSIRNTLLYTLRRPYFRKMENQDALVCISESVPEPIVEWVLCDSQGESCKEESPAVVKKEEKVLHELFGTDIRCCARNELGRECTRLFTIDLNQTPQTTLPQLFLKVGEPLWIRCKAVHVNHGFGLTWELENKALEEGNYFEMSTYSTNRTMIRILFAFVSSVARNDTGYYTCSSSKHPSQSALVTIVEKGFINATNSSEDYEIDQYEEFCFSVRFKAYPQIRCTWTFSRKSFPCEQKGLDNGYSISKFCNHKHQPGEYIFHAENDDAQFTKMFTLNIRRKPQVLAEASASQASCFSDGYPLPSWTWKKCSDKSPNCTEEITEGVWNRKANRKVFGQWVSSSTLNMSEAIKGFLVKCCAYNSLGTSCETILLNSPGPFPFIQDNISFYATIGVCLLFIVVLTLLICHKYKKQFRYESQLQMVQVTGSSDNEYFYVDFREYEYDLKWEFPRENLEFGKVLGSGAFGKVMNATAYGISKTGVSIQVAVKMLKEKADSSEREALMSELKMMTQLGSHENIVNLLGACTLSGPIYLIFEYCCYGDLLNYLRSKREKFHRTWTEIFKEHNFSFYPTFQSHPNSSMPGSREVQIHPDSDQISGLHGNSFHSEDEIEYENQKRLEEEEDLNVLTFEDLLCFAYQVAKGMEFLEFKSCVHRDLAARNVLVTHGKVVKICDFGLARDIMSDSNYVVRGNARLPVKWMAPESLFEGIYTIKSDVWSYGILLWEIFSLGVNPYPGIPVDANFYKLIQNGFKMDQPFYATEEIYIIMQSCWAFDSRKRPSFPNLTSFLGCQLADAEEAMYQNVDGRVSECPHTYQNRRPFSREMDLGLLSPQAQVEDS
How it was run: as §1

[3] = biological target: CDK2/E (Homo sapiens (Human), UniProt P24941); experiment: ADP-Glo Kinase Assay, CDK2/E; assay type: biochemical; settings: 1 μM compound; for inhibition at 1 µM: read-out: CDK2/E % INH (1 μM)
How it was run: as §1

[4] = biological target: DYRK1 (Homo sapiens (Human), UniProt Q13627); experiment: ADP-Glo Kinase Assay, DYRK1; assay type: biochemical; settings: 1 μM compound; for inhibition at 1 µM: read-out: DYRK1A % INH (1 μM)
How it was run: as §1

[5] = tested on: MV4-11 cells; experiment: Growth inhibition, MTS assay, MV4-11; assay type: cell-based, Human; settings: MTS cell viability, read-out: MV4-11 ED50; for IC50: 72 hours; for pIC50: Homo sapiens, MV4-11, 72 h
[6] = tested on: HEL92 cells; experiment: Growth inhibition, MTS assay, HEL92; assay type: cell-based, Human; settings: MTS cell viability, read-out: HEL92 ED50; for pIC50: Homo sapiens, 72 h; for IC50: 72 hours
[7] = tested on: HepG2 cells; experiment: Growth inhibition, MTS assay, HepG2; assay type: cell-based, Human; settings: MTS cell viability, read-out: HepG2 ED50; for IC50: 72 hours; for pIC50: Homo sapiens, HepG2, 72 h
[8] = tested on: MOLM16 cells; experiment: Growth inhibition, MTS assay, MOLM16; assay type: cell-based, Human; settings: MTS cell viability, read-out: MOLM 16 ED50; for pIC50: Homo sapiens, MOLM16, 72 h; for IC50: 72 hours
Excerpt: The following cell lines, were obtained and used in tests as outlined below: • Human myelomonocytic, biphenotypic leukemia MV4-11 cells (harboring a Flt3-ITD mutation); • Human Acute Myeloid Leukemia MOLM16 cells; • Human Acute Myeloid Leukemia MOLM13 cells (harboring a Flt3-ITD mutation); • Human Myeloid Leukemia KG-1 cells; • Human erythroleukemia HEL92 cells; • Human mantle cell lymphoma Jeko-1 cells; • Human hepatocellular carcinoma HepG2 cells; and • Human colon adenocarcinoma SW-480 cells.
The assays were carried out according to the following protocol, which is described as an example for the MV4-11 cells:
Ten thousand MV4-11 cells were inoculated into each well of a 96-well microplate (manufactured by Corning Corp.) using Iscove's MDM medium (culture medium) containing 10% fetal calf serum (FCS). The same day, a dimethyl sulfoxide (DMSO) solution of each test compound prepared in a concentration of 10 mmol/L was further diluted with DMSO to the desired concentrations (0.1, 0.5, 1, 2.5, 5 and 10 micromol/L), and the diluted solution was added to each well. The individual wells were further cultured in 5% carbon dioxide at 37° C. for 72 hours. […] Briefly, 10 μl MTS (3-(4,5-Dimethyl-2-thiazolyl)-5-(carboxymethoxyphenyl)-2-(4-sulfophenyl)-2H-tetrazolium was added to each well, and culturing was performed in 5% carbon dioxide at 37° C. for 2 hours. After this incubation and using a microplate spectrophotometer (Synergy 2 multi-mode microplate reader (BioTek)), the absorbance of each well was measured at 490 nm. The value for cells not incubated with a test compound was designated as 100%. By comparing these values with the absorbance difference obtained at the well in which each test compound was added, the cell viability (% viability) after treatment with the test compound was calculated.

Chain of Pim-1 (P11309 whole entry): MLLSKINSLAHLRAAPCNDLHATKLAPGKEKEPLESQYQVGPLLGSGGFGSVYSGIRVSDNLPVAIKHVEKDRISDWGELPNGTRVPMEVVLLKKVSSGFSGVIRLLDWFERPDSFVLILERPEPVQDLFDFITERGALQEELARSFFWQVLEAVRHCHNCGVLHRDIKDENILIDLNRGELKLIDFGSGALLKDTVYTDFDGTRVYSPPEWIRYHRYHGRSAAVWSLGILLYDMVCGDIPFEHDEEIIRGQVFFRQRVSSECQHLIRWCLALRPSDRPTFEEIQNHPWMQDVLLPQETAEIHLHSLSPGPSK

| Pim-1 % INH (1 μM) [1] | Flt3wt % INH (1 μM) [2] | CDK2/E % INH (1 μM) [3] | DYRK1A % INH (1 μM) [4] | IC50 [5] | IC50 [7] | pIC50 [8] | inhibition at 1 µM [1] | inhibition at 1 µM [2] | inhibition at 1 µM [3] | pIC50 [5] | inhibition at 1 µM [4] | pIC50 [7] | IC50 [8] | SMILES | pIC50 [6] | IC50 [6] |
| --- | --- | --- | --- | --- | --- | --- | --- | --- | --- | --- | --- | --- | --- | --- | --- | --- |
| >95% | 12% | 53% | 39% | 1000 nM | 1300 nM | 6.05 |  |  |  |  |  |  |  | CCn1c(NC2CCC(N)CC2)nc2c([N+](=O)[O-])c(Br)c(Br)cc21 (stereo not drawn) [Example 1DU] | 5.26 |  |
|  |  |  |  |  |  | 6.52 | > 95% | 8% | 48% | 5.29 |  |  |  | CN[C@@H]1CCN(c2nc3c(C#N)c(Br)c(Br)cc3n2C(C)C)C1 [Example 1DW] |  |  |
|  |  |  |  |  |  | 5.55 | 76% |  |  | 5.57 | 95% | < 5.00 |  | CC(C)n1c(N2C[C@H]3C[C@@H]2CN3)nc2c([N+](=O)[O-])c(Br)c(Br)cc21 [Example 22AE, 5,6-dibromo-2-[(1R,4R)-2,5-diazabicyclo[2.2.1]heptan-2-yl]-4-nitro-1-(propan-2-yl)-1H-1,3-benzodiazole] |  |  |
|  |  |  |  |  |  | 6.00 | > 95% | 38% | 36% | 6.10 |  |  |  | CC(C)n1c(C2CCC(N)CC2)nc2c([N+](=O)[O-])c(Br)c(Br)cc21 (stereo not drawn) [Example 26D, 4-[5,6-dibromo-4-nitro-1-(propan-2-yl)-1H-1,3-benzodiazol-2-yl]cyclohexan-1-amine] | 5.01 |  |
|  |  |  |  |  |  | 6.52 | > 95% | < 5% | 46% | 5.82 | 34% | 6.00 |  | CC(C)n1c(N2CCC(N)CC2)nc2c(C#N)c(Br)c(Br)cc21 [Example 1DT] |  |  |
|  |  |  |  |  |  | 5.82 | > 95% | < 5% | 50% | 5.68 | 95% | 5.54 |  | CCn1c(NC2CCC(N)CC2)nc2c(C#N)c(Br)c(Br)cc21 (stereo not drawn) [Example 1DV] |  |  |
|  |  |  |  | 400 nM |  | 7.00 | > 95% | 43% | 36% |  |  |  |  | CC(C)n1c(C2CCCC(N)C2)nc2c([N+](=O)[O-])c(Br)c(Br)cc21 (single isomer, unassigned) [Example 26B, 3-[5,6-dibromo-4-nitro-1-(propan-2-yl)-1H-1,3-benzodiazol-2-yl]cyclohexan-1-amine] |  | 6.1 µM |
|  |  |  |  |  |  | 5.72 | > 95% | < 5% | 20% | 5.64 |  | 5.20 |  | NCCCn1c(N2CC[C@@H](N)C2)nc2c([N+](=O)[O-])c(Br)c(Br)cc21 [Example 3A, (3R)-1-[1-(3-aminopropyl)-5,6-dibromo-4-nitro-1H-1,3-benzodiazol-2-yl]pyrrolidin-3-amine] |  |  |
| >95% | 55% | 55% |  | 100 nM |  |  |  |  |  |  |  |  | 200 nM | CC(C)n1c(C2CCCC(N)C2)nc2c([N+](=O)[O-])c(Br)c(Br)cc21 (single isomer, unassigned) [Example 26C, 3-[5,6-dibromo-4-nitro-1-(propan-2-yl)-1H-1,3-benzodiazol-2-yl]cyclohexan-1-amine] |  | 3.0 µM |
| >95% | 52% |  | >95% | 200 nM | 1000 nM |  |  |  |  |  |  |  | 160 nM | N[C@@H]1CCN(c2nc3c([N+](=O)[O-])c(Br)c(Br)cc3n2C2CCC2)C1 [Example 1DC] |  | 2.0 µM |
